Reference: ChEMBL document CHEMBL5331044, “Recent advances in the development of EGFR degraders: PROTACs and LYTACs” (Eur J Med Chem, 2022)

Columns and labels:
NCI-H1975 [1] = assay: Antiproliferative activity against human NCI-H1975 cells expressing EGFR T790M mutant assessed as inhibition of EGFR phosphorylation; type: functional, cell-based
[2] = test system: Epidermal growth factor receptor (Homo sapiens), P00533 [UNDEFINED MUTATION]; assay: Inhibition of EGFR del19 mutant (unknown origin) assessed as fold change
Chain of Epidermal growth factor receptor (Homo sapiens), P00533 [UNDEFINED MUTATION] (P00533 whole entry, looked up, stated change not applied): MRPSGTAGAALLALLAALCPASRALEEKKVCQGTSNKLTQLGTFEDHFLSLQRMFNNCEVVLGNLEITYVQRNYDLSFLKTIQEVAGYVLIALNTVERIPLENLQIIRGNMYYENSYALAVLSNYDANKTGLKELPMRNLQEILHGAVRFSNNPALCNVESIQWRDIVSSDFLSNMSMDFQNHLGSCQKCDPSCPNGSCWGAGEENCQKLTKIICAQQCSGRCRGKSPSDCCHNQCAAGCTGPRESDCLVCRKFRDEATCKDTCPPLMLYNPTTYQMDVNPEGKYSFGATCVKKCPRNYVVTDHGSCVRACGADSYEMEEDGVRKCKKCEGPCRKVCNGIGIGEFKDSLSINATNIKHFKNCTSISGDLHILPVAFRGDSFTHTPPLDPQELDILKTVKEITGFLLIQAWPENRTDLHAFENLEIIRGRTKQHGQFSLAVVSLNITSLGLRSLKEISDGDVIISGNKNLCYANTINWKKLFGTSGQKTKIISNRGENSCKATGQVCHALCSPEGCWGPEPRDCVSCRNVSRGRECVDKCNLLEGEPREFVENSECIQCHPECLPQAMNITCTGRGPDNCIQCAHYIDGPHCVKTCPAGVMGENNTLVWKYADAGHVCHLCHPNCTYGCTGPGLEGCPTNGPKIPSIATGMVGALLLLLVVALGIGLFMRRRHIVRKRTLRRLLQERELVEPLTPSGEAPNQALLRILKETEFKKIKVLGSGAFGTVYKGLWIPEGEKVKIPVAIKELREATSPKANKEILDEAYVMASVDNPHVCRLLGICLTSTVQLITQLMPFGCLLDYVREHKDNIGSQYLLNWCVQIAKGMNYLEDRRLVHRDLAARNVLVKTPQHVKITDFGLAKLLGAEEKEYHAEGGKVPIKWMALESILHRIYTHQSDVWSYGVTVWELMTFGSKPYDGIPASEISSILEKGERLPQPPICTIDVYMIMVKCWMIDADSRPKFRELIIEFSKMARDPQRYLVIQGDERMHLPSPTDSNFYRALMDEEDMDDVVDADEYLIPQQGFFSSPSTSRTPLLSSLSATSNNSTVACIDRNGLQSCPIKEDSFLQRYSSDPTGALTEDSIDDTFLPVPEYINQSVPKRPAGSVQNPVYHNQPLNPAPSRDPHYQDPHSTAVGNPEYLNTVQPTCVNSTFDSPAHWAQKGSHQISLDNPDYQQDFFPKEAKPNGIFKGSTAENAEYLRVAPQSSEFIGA

[3] = target: von Hippel-Lindau disease tumor suppressor/Receptor tyrosine-protein kinase erbB-2 (Homo sapiens, UniProt P04626+P40337); assay: PROTAC activity at VHL/HER2 in human SK-BR-3 cells assessed as protein degradation incubated for 24 hrs by immunoblot analysis; type: cell-based
Chain of von Hippel-Lindau disease tumor suppressor/Receptor tyrosine-protein kinase erbB-2 (P04626 whole entry): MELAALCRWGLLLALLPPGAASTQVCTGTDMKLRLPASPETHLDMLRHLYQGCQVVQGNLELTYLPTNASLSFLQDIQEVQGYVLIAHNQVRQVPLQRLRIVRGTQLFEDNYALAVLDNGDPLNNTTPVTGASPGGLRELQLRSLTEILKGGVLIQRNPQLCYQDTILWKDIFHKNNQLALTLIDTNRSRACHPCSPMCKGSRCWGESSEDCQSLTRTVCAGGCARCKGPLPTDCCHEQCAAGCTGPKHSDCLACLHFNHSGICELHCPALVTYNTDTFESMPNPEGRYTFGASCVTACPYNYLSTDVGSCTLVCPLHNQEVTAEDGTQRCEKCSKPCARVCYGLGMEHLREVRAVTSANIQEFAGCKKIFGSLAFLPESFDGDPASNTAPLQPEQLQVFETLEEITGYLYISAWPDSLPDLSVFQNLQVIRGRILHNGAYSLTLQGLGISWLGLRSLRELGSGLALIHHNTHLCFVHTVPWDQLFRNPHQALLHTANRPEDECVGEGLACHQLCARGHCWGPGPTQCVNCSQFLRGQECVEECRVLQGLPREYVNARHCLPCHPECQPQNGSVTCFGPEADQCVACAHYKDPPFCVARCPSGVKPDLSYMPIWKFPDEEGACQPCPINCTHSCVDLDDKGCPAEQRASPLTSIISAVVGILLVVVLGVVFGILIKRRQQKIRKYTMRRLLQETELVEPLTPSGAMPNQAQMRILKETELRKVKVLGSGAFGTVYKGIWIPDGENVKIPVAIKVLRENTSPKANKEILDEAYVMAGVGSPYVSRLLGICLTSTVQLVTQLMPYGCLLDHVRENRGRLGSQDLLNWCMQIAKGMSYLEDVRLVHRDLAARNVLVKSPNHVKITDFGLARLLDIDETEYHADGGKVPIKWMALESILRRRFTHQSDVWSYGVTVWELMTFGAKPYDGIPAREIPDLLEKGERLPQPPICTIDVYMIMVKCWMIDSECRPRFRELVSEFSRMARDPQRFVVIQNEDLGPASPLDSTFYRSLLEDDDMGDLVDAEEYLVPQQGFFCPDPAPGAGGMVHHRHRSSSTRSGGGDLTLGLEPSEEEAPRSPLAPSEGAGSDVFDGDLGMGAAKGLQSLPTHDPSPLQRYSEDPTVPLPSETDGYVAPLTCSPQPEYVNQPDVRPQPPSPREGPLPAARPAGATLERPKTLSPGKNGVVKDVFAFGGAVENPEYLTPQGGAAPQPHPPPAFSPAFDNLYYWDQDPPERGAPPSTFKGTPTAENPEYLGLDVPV
Chain of von Hippel-Lindau disease tumor suppressor/Receptor tyrosine-protein kinase erbB-2 (P40337 whole entry): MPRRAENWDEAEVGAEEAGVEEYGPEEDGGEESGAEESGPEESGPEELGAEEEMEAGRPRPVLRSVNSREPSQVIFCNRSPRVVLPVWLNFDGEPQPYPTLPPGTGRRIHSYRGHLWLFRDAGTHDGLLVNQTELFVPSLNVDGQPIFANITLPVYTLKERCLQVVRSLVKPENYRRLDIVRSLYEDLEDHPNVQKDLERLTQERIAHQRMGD

[4] = target: von Hippel-Lindau disease tumor suppressor/Epidermal growth factor receptor (Homo sapiens, UniProt P00533+P40337); assay: PROTAC activity at VHL/EGFR ins20 mutant in human HeLa cells assessed as protein degradation incubated for 24 hrs by immunoblot analysis; type: cell-based
Chain of von Hippel-Lindau disease tumor suppressor/Epidermal growth factor receptor (P00533 25-1210 limits assumed, stated change not applied): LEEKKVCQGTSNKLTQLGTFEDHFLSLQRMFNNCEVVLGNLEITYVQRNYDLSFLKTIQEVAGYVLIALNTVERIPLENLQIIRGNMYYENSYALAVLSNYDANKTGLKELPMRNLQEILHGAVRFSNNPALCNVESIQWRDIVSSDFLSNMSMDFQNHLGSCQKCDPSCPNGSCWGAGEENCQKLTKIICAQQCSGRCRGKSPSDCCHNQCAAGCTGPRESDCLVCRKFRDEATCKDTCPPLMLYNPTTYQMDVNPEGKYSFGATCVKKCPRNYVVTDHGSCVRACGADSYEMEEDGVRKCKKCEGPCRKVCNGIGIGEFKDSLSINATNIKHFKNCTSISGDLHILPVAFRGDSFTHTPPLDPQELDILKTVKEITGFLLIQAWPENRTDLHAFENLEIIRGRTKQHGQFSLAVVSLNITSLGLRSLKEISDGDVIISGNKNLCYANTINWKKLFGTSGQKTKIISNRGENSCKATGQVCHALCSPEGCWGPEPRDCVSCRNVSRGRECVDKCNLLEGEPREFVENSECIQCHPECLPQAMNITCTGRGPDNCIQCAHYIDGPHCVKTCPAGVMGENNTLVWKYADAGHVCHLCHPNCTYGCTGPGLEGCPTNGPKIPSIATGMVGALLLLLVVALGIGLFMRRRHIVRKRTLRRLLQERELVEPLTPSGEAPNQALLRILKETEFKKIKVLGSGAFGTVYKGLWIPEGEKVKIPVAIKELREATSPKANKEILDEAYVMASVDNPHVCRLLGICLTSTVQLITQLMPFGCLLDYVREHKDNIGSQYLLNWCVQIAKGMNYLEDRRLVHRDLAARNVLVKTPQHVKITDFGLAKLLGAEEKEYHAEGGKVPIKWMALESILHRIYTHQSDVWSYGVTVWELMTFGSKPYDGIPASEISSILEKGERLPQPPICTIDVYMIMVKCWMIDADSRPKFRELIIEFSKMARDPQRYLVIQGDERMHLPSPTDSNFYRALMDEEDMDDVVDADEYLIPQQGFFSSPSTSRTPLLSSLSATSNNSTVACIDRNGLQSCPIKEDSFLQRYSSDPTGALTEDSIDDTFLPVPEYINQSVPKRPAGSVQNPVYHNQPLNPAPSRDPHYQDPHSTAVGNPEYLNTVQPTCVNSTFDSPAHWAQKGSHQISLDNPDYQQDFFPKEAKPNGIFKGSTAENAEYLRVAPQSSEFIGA
Chain of von Hippel-Lindau disease tumor suppressor/Epidermal growth factor receptor (P40337 whole entry, stated change not applied): as the sequence (P40337 whole entry) above

A-431 = assay: Antiproliferative activity against human A-431 cells expressing wild type EGFR assessed as inhibition of cell growth; type: functional, cell-based
NCI-H1975 [5] = assay: Antiproliferative activity against human NCI-H1975 cells expressing EGFR L858R/T790M mutant assessed as inhibition of cell growth; type: functional, cell-based
BaF3 = assay: Antiproliferative activity against mouse BaF3 cells transfected with EGFR […]/T790M mutant assessed as inhibition of cell growth; type: functional, cell-based
[6] = target: T1, Epidermal growth factor receptor (Homo sapiens, UniProt P00533); assay: Inhibition of EGFR in human NCI-H1975 cells; type: cell-based
T1 sequence (P00533 whole entry): as the sequence (P00533 whole entry, looked up, stated change not applied) above

[7] = target: Epidermal growth factor receptor (Homo sapiens, UniProt P00533, EX19DEL); assay: Inhibition of EGFR del19 mutant in human HCC827 cells; type: cell-based
[8] = target: T1, Epidermal growth factor receptor; assay: Inhibition of wild type EGFR in human A549 cells; type: cell-based
[9] = target: T1, Epidermal growth factor receptor; assay: Inhibition of wild type EGFR in human A-431 cells; type: cell-based

Question: With `CN(C)C/C=C/C(=O)Nc1cc2c(Nc3ccc(F)c(Cl)c3)ncnc2cc1O[C@H]1CCOC1` [AFATINIB] as the compound, how does the IC50 (NCI-H1975 [1]) read?
Answer: 93 nM

Question: Which fold change (FC) [2] does the source give for `COc1cc2ncnc(N(Cc3ccc([N+](=O)[O-])cc3)c3ccc(F)c(Cl)c3)c2cc1OCCOCCOCCOCCC(=O)Nc1cccc2c1CN(C1CCC(=O)NC1=O)C2=O` (stereo unspecified) here?
Answer: 1000

Question: For `Cc1ncsc1-c1ccc(CNC(=O)[C@@H]2C[C@@H](O)CN2C(=O)[C@@H](NC(=O)COCCOCCOc2ccc(-c3ccc4ncnc(Nc5ccc(OCc6cccc(F)c6)c(Cl)c5)c4c3)cc2)C(C)(C)C)cc1`, which DC50 [3] is on record?
Answer: 102 nM

Question: What about the DC50 [4] of the same compound?
Answer: 736 nM

Question: Which results are given for `O=C(Nc1nccs1)C(c1cc(F)ccc1O)N1Cc2ccccc2C1=O` (stereo unspecified)?
Answer: IC50 (A-431): 1900 nM; IC50 (NCI-H1975 [5]): 2 nM

Question: For `O=C1CCC(N2C(=O)c3cccc(NCCOCCOCCOCCN4CCN(c5ccc(-c6ccc7c(c6)C(=O)N(C(C(=O)Nc6nccs6)c6ccccc6)C7)cn5)CC4)c3C2=O)C(=O)N1` (stereo unspecified), which IC50 (BaF3) is on record?
Answer: 96 nM

Question: Which IC50 [6] does the source give for `Cc1ncsc1-c1ccc(CNC(=O)[C@@H]2C[C@@H](O)CN2C(=O)[C@@H](NC(=O)CCCCCCCCCCn2cc(COc3cc4ncnc(Nc5ccc(F)c(Cl)c5)c4cc3NC(=O)/C=C/CN3CCCCC3)nn2)C(C)(C)C)cc1` here?
Answer: > 20000 nM

Question: What about the IC50 [7] of the same compound?
Answer: 6 nM

Question: And the IC50 [8]?
Answer: > 20000 nM

Question: What about the IC50 [9] of the same compound?
Answer: > 20000 nM
